Experimental data: patent US11339171B2, “MDM2 inhibitors” (Gan & Lee Pharmaceuticals, priority 2017, dated 2022)

test system: human osteosarcoma cell line SJSA-1; assay: Inhibition of proliferation of human osteosarcoma cell line SJSA-1 (DAPI staining, In Cell Analyzer); details: Homo sapiens, SJSA-1, 72 h, read-out: IC50 (nM), inhibitory activity on proliferation of human osteosarcoma cell line SJSA-1, SJSA-1, incubated 72 h

IC50 [nM] | Structure (SMILES)
83.8 | COc1ccc(-c2nc3c(n2C(C)C)[C@@]2(C(=O)Nc4cc(Cl)ccc42)N(c2cccc(Cl)c2)C3=O)c(OC)c1 [Example S-36, (S)-6-chloro-5′-(3-chlorophenyl)-2′-(2,4-dimethoxyphenyl)-3′-isopropyl-3′H-spiro[dihydroindole-3,4′-pyrrolo[3,4-d]imidazole]-2,6′(5′H)-dione]
3180 | COc1ccc(-c2nc3c(n2C(C)C)[C@]2(C(=O)Nc4cc(Cl)ccc42)N(c2cccc(Cl)c2)C3=O)c(OC)c1 [Example R-36, (R)-6-chloro-5′-(3-chlorophenyl)-2′-(2,4-dimethoxyphenyl)-3′-isopropyl-3′H-spiro[dihydroindole-3,4′-pyrrolo[3,4-d]imidazole]-2,6′(5′H)-dione]

same assay, conditions: labels are Example numbers; the compounds with S-configuration are meant

Structure (SMILES) | inhibitory effect on human osteosarcoma cell line SJSA-1 compared with positive control compound HDM201
COc1nc(C2CC2)ncc1-c1nc2c(n1C(C)C)C1(C(=O)Nc3cc(Cl)ccc31)N(c1cc(Cl)ccc1C)C2=O (stereo not shown) [Example 121, 6-chloro-5′-(5-chloro-2-methylphenyl)-2′-(2-cyclopropyl-4-methoxypyrimidin-5-yl)-3′-isopropyl-3′H-spiro[dihydroindole-3,4′-pyrrolo[3,4-d]imidazole]-2,6′(5′H)-dione] | better
COc1cc(C)ccc1-c1nc2c(n1C(C)C)C1(C(=O)Nc3cc(Cl)ccc31)N(c1cc(Cl)ccc1C)C2=O (stereo not shown) [Example 24, 6-chloro-5′-(5-chloro-2-methylphenyl)-3′-isopropyl-2′-(2-methoxy-4-methylphenyl)-3′H-spiro[dihydroindole-3,4′-pyrrolo[3,4-d]imidazole]-2,6′(5′H)-dione] | better
COc1cc(C(C)C)ccc1-c1nc2c(n1C(C)C)C1(C(=O)Nc3cc(Cl)ccc31)N(c1cc(Cl)ccc1C)C2=O (stereo not shown) [Example 32, 6-chloro-5′-(5-chloro-2-methylphenyl)-3′-isopropyl-2′-(4-isopropyl-2-methoxyphenyl)-3′H-spiro[dihydroindole-3,4′-pyrrolo[3,4-d]imidazole]-2,6′(5′H)-dione] | better
COc1nc(N2CCCC2)ncc1-c1nc2c(n1C(C)C)C1(C(=O)Nc3cc(Cl)ccc31)N(c1cc(Cl)ccc1C)C2=O (stereo not shown) [Example 114] | better
COc1ccc(-c2nc3c(n2C(C)C)C2(C(=O)Nc4cc(Cl)ccc42)N(c2cc(Cl)ccc2C)C3=O)c(OC)c1 (stereo not shown) [Example 9, 6-chloro-5′-(5-chloro-2-methylphenyl)-2′-(2,4-dimethoxyphenyl)-3′-isopropyl-3′H-spiro[dihydroindole-3,4′-pyrrolo[3,4-d]imidazole]-2,6′(5′H)-dione] | better
COc1nc(N(C)C)ccc1-c1nc2c(n1C(C)C)C1(C(=O)Nc3cc(Cl)ccc31)N(c1cc(Cl)ccc1C)C2=O (stereo not shown) [Example 157, 6-chloro-5′-(5-chloro-2-methylphenyl)-2′-(6-(dimethylamino)-2-methoxypyridin-3-yl)-3′-isopropyl-3′H-spiro[dihydroindole-3,4′-pyrrolo[3,4-d]imidazole]-2,6′(5′H)-dione] | better
CCN(C)c1ccc(-c2nc3c(n2C(C)C)C2(C(=O)Nc4cc(Cl)ccc42)N(c2cc(Cl)ccc2C)C3=O)c(OC)c1 (stereo not shown) [Example 99, 6-chloro-5′-(5-chloro-2-methylphenyl)-2′-(4-(ethyl(methyl)amino)-2-methoxyphenyl)-3′-isopropyl-3′H-spiro[dihydroindole-3,4′-pyrrolo[3,4-d]imidazole]-2,6′(5′H)-dione] | better
COc1cc(C(C)(C)C)ccc1-c1nc2c(n1C(C)C)C1(C(=O)Nc3cc(Cl)ccc31)N(c1cc(Cl)ccc1C)C2=O (stereo not shown) [Example 101, 2′-(4-(tert-butyl)-2-methoxyphenyl)-6-chloro-5′-(5-chloro-2-methylphenyl)-3′-isopropyl-3′H-spiro[dihydroindole-3,4′-pyrrolo[3,4-d]imidazole]-2,6′(5′H)-dione] | better
COc1cc(C2CC2)ncc1-c1nc2c(n1C(C)C)C1(C(=O)Nc3cc(Cl)ccc31)N(c1cccc(Cl)c1)C2=O (stereo not shown) [Example 106, 6-chloro-5′-(3-chlorophenyl)-2′-(6-cyclopropyl-4-methoxypyridin-3-yl)-3′-isopropyl-3′H-spiro[dihydroindole-3,4′-pyrrolo[3,4-d]imidazole]-2,6′(5′H)-dione] | better
CCN(C)c1ncc(-c2nc3c(n2C(C)C)C2(C(=O)Nc4cc(Cl)ccc42)N(c2cc(Cl)ccc2C)C3=O)c(OC)n1 (stereo not shown) [Example 119, 6-chloro-5′-(5-chloro-2-methylphenyl)-2′-(2-(ethyl(methyl)amino)-4-methoxypyrimidin-5-yl)-3′-isopropyl-3′H-spiro[dihydroindole-3,4′-pyrrolo[3,4-d]imidazole]-2,6′(5′H)-dione] | better
CNc1ccc(-c2nc3c(n2C(C)C)C2(C(=O)Nc4cc(Cl)ccc42)N(c2cc(Cl)ccc2C)C3=O)c(OC)c1 (stereo not shown) [Example 25] | better
COc1cc(OC)c(-c2nc3c(n2C(C)C)C2(C(=O)Nc4cc(Cl)ccc42)N(c2cc(Cl)ccc2C)C3=O)cc1C (stereo not shown) [Example 83, 6-chloro-5′-(5-chloro-2-methylphenyl)-2′-(2,4-dimethoxy-5-methylphenyl)-3′-isopropyl-3′H-spiro[dihydroindole-3,4′-pyrrolo[3,4-d]imidazole]-2,6′(5′H)-dione] | better
CCOc1ncc(-c2nc3c(n2C(C)C)C2(C(=O)Nc4cc(Cl)ccc42)N(c2cc(Cl)ccc2C)C3=O)c(OC)n1 (stereo not shown) [Example 127] | better
COc1cc(C2CC2)ccc1-c1nc2c(n1C(C)C)C1(C(=O)Nc3cc(Cl)ccc31)N(c1cc(Cl)ccc1C)C2=O (stereo not shown) [Example 86, 6-chloro-5′-(5-chloro-2-methylphenyl)-2′-(4-cyclopropyl-2-methoxyphenyl)-3′-isopropyl-3′H-spiro[dihydroindole-3,4′-pyrrolo[3,4-d]imidazole]-2,6′(5′H)-dione] | better
COc1nc(C(C)C)ncc1-c1nc2c(n1C(C)C)C1(C(=O)Nc3cc(Cl)ccc31)N(c1cc(Cl)ccc1C)C2=O (stereo not shown) [Example 172, 6-chloro-5′-(5-chloro-2-methylphenyl)-3′-isopropyl-2′-(2-isopropyl-4-methoxypyrimidin-5-yl)-3′H-spiro[dihydroindole-3,4′-pyrrolo[3,4-d]imidazole]-2,6′(5′H)-dione] | better
CCc1ccc(-c2nc3c(n2C(C)C)C2(C(=O)Nc4cc(Cl)ccc42)N(c2cc(Cl)ccc2C)C3=O)c(OC)c1 (stereo not shown) [Example 33, 6-chloro-5′-(5-chloro-2-methylphenyl)-2′-(4-ethyl-2-methoxyphenyl)-3′-isopropyl-3′H-spiro[dihydroindole-3,4′-pyrrolo[3,4-d]imidazole]-2,6′(5′H)-dione] | better
CCOc1ccc(-c2nc3c(n2C(C)C)C2(C(=O)Nc4cc(Cl)ccc42)N(c2cc(Cl)ccc2C)C3=O)c(OC)n1 (stereo not shown) [Example 146, 6-chloro-5′-(5-chloro-2-methylphenyl)-2′-(6-ethoxy-2-methoxypyridin-3-yl)-3′-isopropyl-3′H-spiro[dihydroindole-3,4′-pyrrolo[3,4-d]imidazole]-2,6′(5′H)-dione] | better
COc1nc(OCC(F)(F)F)ncc1-c1nc2c(n1C(C)C)C1(C(=O)Nc3cc(Cl)ccc31)N(c1cc(Cl)ccc1C)C2=O (stereo not shown) [Example 141, 6-chloro-5′-(5-chloro-2-methylphenyl)-3′-isopropyl-2′-(4-methoxy-2-(2,2,2-trifluoroethoxy)pyrimidin-5-yl)-3′H-spiro[dihydroindole-3,4′-pyrrolo[3,4-d]imidazole]-2,6′(5′H)-dione] | better
COc1cc(C2CC2)cc(OC)c1-c1nc2c(n1C(C)C)C1(C(=O)Nc3cc(Cl)ccc31)N(c1cc(Cl)ccc1C)C2=O (stereo not shown) [Example 108, 6-chloro-5′-(5-chloro-2-methylphenyl)-2′-(4-cyclopropyl-2,6-dimethoxyphenyl)-3′-isopropyl-3′H-spiro[dihydroindole-3,4′-pyrrolo[3,4-d]imidazole]-2,6′(5′H)-dione] | better
COc1cc(C2CC2)ccc1-c1nc2c(n1C(C)C)C1(C(=O)Nc3cc(Cl)ccc31)N(c1cc(Cl)cnc1C)C2=O (stereo not shown) [Example 145, 6-chloro-5′-(5-chloro-2-methylpyridin-3-yl)-2′-(4-cyclopropyl-2-methoxyphenyl)-3′-isopropyl-3′H-spiro[dihydroindole-3,4′-pyrrolo[3,4-d]imidazole]-2,6′(5′H)-dione] | better
COc1cc(F)ccc1-c1nc2c(n1C(C)C)C1(C(=O)Nc3cc(Cl)ccc31)N(c1cc(Cl)ccc1C)C2=O (stereo not shown) [Example 4, 6-chloro-5′-(5-chloro-2-methylphenyl)-2′-(4-fluoro-2-methoxyphenyl)-3′-isopropyl-3′H-spiro[dihydroindole-3,4′-pyrrolo[3,4-d]imidazole]-2,6′(5′H)-dione] | better
COc1cc(N(C)CCO)ccc1-c1nc2c(n1C(C)C)C1(C(=O)Nc3cc(Cl)ccc31)N(c1cc(Cl)ccc1C)C2=O (stereo not shown) [Example 162, 6-chloro-5′-(5-chloro-2-methylphenyl)-2′-(4-((2-hydroxyethyl)(methyl)amino)-2-methoxyphenyl)-3′-isopropyl-3′H-spiro[dihydroindole-3,4′-pyrrolo[3,4-d]imidazole]-2,6′(5′H)-dione] | better

same assay, conditions: read-out: IC50 (nM), inhibitory activity on proliferation of human osteosarcoma cell line SJSA-1; SJSA-1, incubated 72 h

IC50 [nM] | Structure (SMILES)
72.3 | COc1ccc(-c2nc3c(n2C(C)C)[C@@]2(C(=O)Nc4cc(Cl)ccc42)N(c2cccc(Cl)c2)C3=O)c(OC)c1 [Example S-36, (S)-6-chloro-5′-(3-chlorophenyl)-2′-(2,4-dimethoxyphenyl)-3′-isopropyl-3′H-spiro[dihydroindole-3,4′-pyrrolo[3,4-d]imidazole]-2,6′(5′H)-dione]
